From patent US20100160321A1, “IMIDAZOLINONE AND HYDANTOINE DERIVATIVES AS NOVEL INHIBITORS OF HISTONE DEACETYLASE” (priority 2005, published 2010) come the findings set out here.

Data set [1] has as its target histone deacetylase (HeLa nuclear extracts). As to the kind of experiment: In vitro assay for inhibition of histone deacetylase (HDAC Fluorescent Activity Assay, Fluor de Lys). It counts as biochemical. The conditions noted are these: HeLa nuclear extracts 60 μg/ml, 75 μM Fluor de Lys substrate, example C.1. The text has this: The in vitro assay for inhibition of histone deacetylase (see example C.1) measures the inhibition of HDAC enzymatic activity obtained with the compounds of formula (I).
The HDAC Fluorescent Activity Assay/Drug Discovery Kit of Biomol (cat.No: AK-500-0001) was used. The HDAC Fluorescent Activity Assay is based on the Fluor de Lys (Fluorogenic Histone deAcetylase Lysyl) substrate and developer combination. The Fluor de Lys substrate, comprises an acetylated lysine side chain. Deacetylation of the substrate sensitizes the substrate so that, in the second step, treatment with the Fluor de Lys developer produces a fluorophore.
HeLa nuclear extracts (supplier: Biomol) were incubated at 60 μg/ml with 75 μM of substrate. The Fluor de Lys substrate was added in a buffer containing 25 mM Tris, 137 mM NaCl, 2.7 mM KCl and 1 mM MgCl2.6H2O at pH 7.4. After 30 min, 1 volume of the developer was added. The fluorophore was excited with 355 nm light and the emitted light (450 nm) was be detected on a fluorometric plate reader.
For each experiment, controls (containing HeLa nuclear extract and buffer), a blank incubation (containing buffer but no HeLa nuclear extract) and samples (containing compound dissolved in DMSO and further diluted in buffer and HeLa nuclear extract) were run in parallel. In first instance, compounds were tested at a concentration of 10^−5M. […] All sample were tested 4 times. In each test the blank value was subtracted from both the control and the sample values. The control sample represented 100% of substrate deactylation. For each sample the fluorescence was expressed as a percentage of the mean value of the controls. […] Herein the effects of test compounds are expressed as pIC50 (the negative log value of the IC50-value) (see Table F-3).

Data set [2] deals with human A2780 ovarian carcinoma cells. As to the kind of experiment: Antiproliferative activity on A2780 cells (MTT). It counts as cell-based. Conditions: 96 h, four days of incubation, example C.2, read-out: Cellular activity pIC50 (converted). Here is the method: All compounds tested were dissolved in DMSO and further dilutions were made in culture medium. Final DMSO concentrations never exceeded 0.1% (v/v) in cell proliferation assays. Controls contained A2780 cells and DMSO without compound and blanks contained DMSO but no cells. MTT was dissolved at 5 mg/ml in PBS.
Cells were routinely kept as monolayer cultures at 37° C. in a humidified 5% CO2 atmosphere. Cells were passaged once a week using a trypsin/EDTA solution at a split ratio of 1:40. All media and supplements were obtained from Life Technologies. Cells were free of mycoplasma contamination as determined using the Gen-Probe Mycoplasma Tissue Culture kit (supplier: BioMerieux).
Cells were seeded in NUNC™ 96-well culture plates (Supplier: Life Technologies) and allowed to adhere to the plastic overnight. Densities used for plating were 1500 cells per well in a total volume of 200 μl medium. After cell adhesion to the plates, medium was changed and drugs and/or solvents were added to a final volume of 200 μl. Following four days of incubation, medium was replaced by 200 μl fresh medium and cell density and viability was assessed using an MTT-based assay. To each well, 25 μl MTT solution was added and the cells were further incubated for 2 hours at 37° C. The medium was then carefully aspirated and the blue MTT-formazan product was solubilized by addition of 25 μl glycine buffer followed by 100 μl of DMSO. […] Within an experiment, the results for each experimental condition are the mean of 3 replicate wells. […] For each experiment, controls (containing no drug) and a blank incubation (containing no cells or drugs) were run in parallel. The blank value was subtracted from all control and sample values. For each sample, the mean value for cell growth (in absorbance units) was expressed as a percentage of the mean value for cell growth of the control. […] Herein the effects of test compounds are expressed as pIC50 (the negative log value of the IC50-value)(see Table F-3).

For `COc1cc(-n2ccn(CC3CN(c4ncc(C(=O)NO)cn4)CCO3)c2=O)cc(OC)c1OC` (centres unmarked) [Compound 16], the “Enzyme activity pIC50” value in data set [1] came out at 7.2. The IC50 in data set [2] was 1260 nM.

Regarding `O=C(NO)c1cnc(N2CCC(Cn3ccn(-c4cccc(F)c4)c3=O)CC2)nc1` [Compound 30], the “Enzyme activity pIC50” value in data set [1] worked out at 7.5. In data set [2], the IC50 was 631 nM.

For `O=C(NO)c1cnc(N2CCOC(Cn3ccn(-c4ccc(F)cc4)c3=O)C2)nc1` (centres unmarked) [Compound 20], the “Enzyme activity pIC50” value in data set [1] stood at 7.3. Besides, in data set [2], the IC50 was 501 nM.

Turning to `COc1ccc(-n2ccn(CC3CCN(c4ncc(C(=O)NO)cn4)CC3)c2=O)cc1` [Compound 28], the “Enzyme activity pIC50” value in data set [1] is given as 7.6. Besides, in data set [2], the IC50 was 631 nM.

As for `O=C(NO)c1cnc(N2CCC(Cn3ccn(-c4ccccc4)c3=O)CC2)nc1` [Compound 32], the “Enzyme activity pIC50” value in data set [1] came to 6.6. Also, the IC50 in data set [2] was 1000 nM.

For the compound `COc1cc(-n2ccn(CC3CCN(c4ncc(C(=O)NO)cn4)CC3)c2=O)cc(OC)c1OC` [Compound 25], the “Enzyme activity pIC50” value in data set [1] came out at 7.4. For the same compound, in data set [2], the IC50 was 631 nM.

As to `O=C(NO)c1cnc(N2CCC(Cn3ccn(-c4cccc(C(F)(F)F)c4)c3=O)CC2)nc1` [Compound 23], the “Enzyme activity pIC50” value in data set [1] came out at 7.2. In data set [2], the IC50 was 1260 nM.

Turning to `O=C(NO)c1cnc(N2CCC(CN3CCN(c4ccc(Oc5ccccc5)cc4)C3=O)CC2)nc1` [Compound 10], in data set [1], the “Enzyme activity pIC50” value turned out to be 7.2. For the same compound, in data set [2], the IC50 is 2510 nM.

Regarding `Cc1ccc(-n2ccn(CC3CN(c4ncc(C(=O)NO)cn4)CCO3)c2=O)cc1` (centres unmarked) [Compound 22], the “Enzyme activity pIC50” value in data set [1] amounted to 7.2. Moreover, the IC50 in data set [2] was 5010 nM.

Turning to `O=C(NO)c1cnc(N2CCOC(Cn3ccn(-c4cccc(F)c4)c3=O)C2)nc1` (centres unmarked) [Compound 21], the “Enzyme activity pIC50” value in data set [1] is 7.4. In addition, in data set [2], the IC50 was 501 nM.

As for `COc1ccc(-n2ccn(CC3CN(c4ncc(C(=O)NO)cn4)CCO3)c2=O)cc1` (centres unmarked) [Compound 18], in data set [1], the “Enzyme activity pIC50” value is on record as 7.2. The IC50 in data set [2] was 1260 nM.

With `COc1cccc(-n2ccn(CC3CCN(c4ncc(C(=O)NO)cn4)CC3)c2=O)c1` [Compound 29], in data set [1], the “Enzyme activity pIC50” value is on record as 7.7. In addition, the IC50 in data set [2] was 631 nM.

What is called melting point is the temperature of the solid-liquid transition. Consider `N#Cc1ccc(N2C(=O)C(c3ccccc3)N(CC3CCN(c4ncc(C(=O)NO)cn4)CC3)C2=O)cc1` (centres unmarked) [Compound 5], for which the melting point is 187 °C. Besides, the “Enzyme activity pIC50” value in data set [1] is given as 7.1. Also, the IC50 in data set [2] was 631 nM.

Turning to `COc1ccc(-n2ccn(CC3CCN(c4ncc(C(=O)NO)cn4)CC3)c2=O)cc1OC` [Compound 27], the “Enzyme activity pIC50” value in data set [1] stood at 7.5. Besides, the IC50 in data set [2] is 631 nM.

`O=C(NO)c1cnc(N2CCC(Cn3ccn(-c4ccc(Oc5ccccc5)cc4)c3=O)CC2)nc1` [Compound 2]: the “Enzyme activity pIC50” value in data set [1] is reported as 7.5. Further, in data set [2], the IC50 is 126 nM.

For the compound `O=C(NO)c1cnc(N2CCOC(Cn3ccn(-c4cccc(C(F)(F)F)c4)c3=O)C2)nc1` (centres unmarked) [Compound 15], the “Enzyme activity pIC50” value in data set [1] was 7.3. In data set [2], the IC50 was 1260 nM.

Take `Cc1cccc(-n2ccn(CC3CN(c4ncc(C(=O)NO)cn4)CCO3)c2=O)c1` (centres unmarked) [Compound 14]: in data set [1], the “Enzyme activity pIC50” value came out at 6.8. For the same compound, in data set [2], the IC50 was 6310 nM.

In the case of `O=C(NO)c1cnc(N2CCOC(Cn3ccn(-c4ccccc4)c3=O)C2)nc1` (centres unmarked) [Compound 12], the “Enzyme activity pIC50” value in data set [1] is recorded as 7.5. The IC50 in data set [2] was 631 nM.

For `O=C(NO)c1cnc(N2CCC(CN3CCN(c4cccc5ccccc45)C3=O)CC2)nc1` [Compound 1], the “Enzyme activity pIC50” value in data set [1] amounted to 7.1. In data set [2], the IC50 is 1000 nM.

`CC1C(=O)N(c2ccc(-c3ccccc3)cc2)C(=O)N1CC1CCN(c2ncc(C(=O)NO)cn2)CC1` (centres unmarked) [Compound 6] gave a melting point of 169 °C. For the same compound, the “Enzyme activity pIC50” value in data set [1] was 7.2. In addition, the IC50 in data set [2] was 501 nM.

As to `Cc1ccc(-n2ccn(CC3CCN(c4ncc(C(=O)NO)cn4)CC3)c2=O)cc1` [Compound 31], the “Enzyme activity pIC50” value in data set [1] stood at 7.7. For the same compound, the IC50 in data set [2] was 631 nM.

As to `O=C(NO)c1cnc(N2CCC(Cn3ccn(-c4ccc5c(c4)OCCOCCOCCOCCO5)c3=O)CC2)nc1` [Compound 24], the “Enzyme activity pIC50” value in data set [1] turned out to be 7.4. Moreover, in data set [2], the IC50 was 631 nM.

As to `CC1C(=O)N(c2ccc(C#N)cc2)C(=O)N1CC1CCN(c2ncc(C(=O)NO)cn2)CC1` (centres unmarked) [Compound 36], the melting point worked out at 135 °C. In addition, in data set [1], the “Enzyme activity pIC50” value is recorded as 7.0. Also, in data set [2], the IC50 is 1580 nM.

As to `O=C(NO)c1cnc(N2CCC(Cn3ccn(-c4ccc(-c5ccccc5)cc4)c3=O)CC2)nc1` [Compound 3], the “Enzyme activity pIC50” value in data set [1] amounted to 7.8. The IC50 in data set [2] was 79.4 nM.

As to `O=C(NO)c1cnc(N2CCC(CN3CCN(c4ccc(-c5ccccc5)cc4)C3=O)CC2)cn1` [Compound 11], the “Enzyme activity pIC50” value in data set [1] stood at 7.3. In addition, the IC50 in data set [2] was 631 nM.

`O=C(NO)c1cnc(N2CCC(Cn3ccn(-c4ccc(F)cc4)c3=O)CC2)nc1` [Compound 4]: the “Enzyme activity pIC50” value in data set [1] worked out at 7.6. For the same compound, the IC50 in data set [2] was 631 nM.

Regarding `Cc1[nH]c2ccccc2c1CCn1ccn(CC2CCN(c3ncc(C(=O)NO)cn3)CC2)c1=O` [Compound 35], the melting point was determined as 246 °C. Besides, the “Enzyme activity pIC50” value in data set [1] was determined as 7.9. For the same compound, the IC50 in data set [2] is 501 nM.

As for `COc1cc(OC)cc(-n2ccn(CC3CCN(c4ncc(C(=O)NO)cn4)CC3)c2=O)c1` [Compound 26], the “Enzyme activity pIC50” value in data set [1] is reported as 7.4. The IC50 in data set [2] is 501 nM.

Turning to `COc1ccc(-n2ccn(CC3CN(c4ncc(C(=O)NO)cn4)CCO3)c2=O)cc1OC` (centres unmarked) [Compound 13], the “Enzyme activity pIC50” value in data set [1] is 7.3. In addition, the IC50 in data set [2] was 794 nM.
